In assay [1] the target is T1, human SGLT2 (Homo sapiens, UniProt P31639).
T1 construct: A full-length cDNA clone expressing human SGLT2
T1 sequence (P31639 1-672): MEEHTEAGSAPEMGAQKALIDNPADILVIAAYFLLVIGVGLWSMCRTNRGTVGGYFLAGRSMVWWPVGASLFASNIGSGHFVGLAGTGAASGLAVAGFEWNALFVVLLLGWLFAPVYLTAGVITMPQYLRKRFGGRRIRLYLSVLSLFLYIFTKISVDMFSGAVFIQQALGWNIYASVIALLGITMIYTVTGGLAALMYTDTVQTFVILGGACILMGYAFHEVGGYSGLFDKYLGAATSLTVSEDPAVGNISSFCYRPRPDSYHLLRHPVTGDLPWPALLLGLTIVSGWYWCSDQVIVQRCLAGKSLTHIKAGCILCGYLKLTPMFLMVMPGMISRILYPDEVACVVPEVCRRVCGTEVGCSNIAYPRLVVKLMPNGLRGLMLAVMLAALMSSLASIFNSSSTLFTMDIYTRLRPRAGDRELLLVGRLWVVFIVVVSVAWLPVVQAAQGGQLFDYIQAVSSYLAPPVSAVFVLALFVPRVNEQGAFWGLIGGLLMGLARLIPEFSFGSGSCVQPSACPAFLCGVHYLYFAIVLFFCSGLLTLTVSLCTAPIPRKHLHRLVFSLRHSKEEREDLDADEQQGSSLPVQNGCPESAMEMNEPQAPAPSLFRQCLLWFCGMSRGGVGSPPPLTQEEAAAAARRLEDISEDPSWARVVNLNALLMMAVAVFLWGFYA
As to the kind of experiment: Methyl-α-D-[U-14C]glucopyranoside uptake assay, SGLT2. The format is cell-based. The settings on record: HEK293.ETN cells stably expressing human SGLT2, sodium-dependent uptake, 1.5 h incubation. From the text:
A full-length cDNA clone expressing human SGLT2 (GenScript Corporation) was subcloned into Hind III and Not I sites of pEAK15 expression vector. Clones harboring the cDNA inserts were identified by restriction analysis.
Plasmid containing human SGLT2 was linearized with Nsi I and purified by agarose gel electrophoresis. Using Lipofectamine 2000 Transfection Reagent (Invitrogen Corporation), DNA was transfected into HEK293.ETN cells and cultured in Dulbecco's Modified Eagle Medium (DMEM) containing 10% fetal bovine serum (FBS) at 37° C. under 5% CO2 for 24 h. Transfectants were selected in the same growth medium supplemented with puromycin (Invitrogen Corporation) for two weeks. Puromycin-resistant cells were recovered and seeded on a fresh 96-well plate (single cell per well) and cultured in the presence of puromycin until cells became confluent. Puromycin-resistant clones were evaluated for SGLT2 activity in the methyl-α-D-[U-^14C]glucopyranoside uptake assay described below.
(§1) Cells expressing SGLT1 or SGLT2 were seeded on 96-well ScintiPlate scintillating plates (PerkinElmer, Inc.) in DMEM containing 10% FBS (1×10^5 cells per well in 100 μl medium) incubated at 37° C. under 5% CO2 for 48 h prior to the assay. Cells were washed twice with 150 μl of either sodium buffer (137 mM NaCl, 5.4 mM KCl, 2.8 mM CaCl2, 1.2 mM MgCl2, 10 mM tris(hydroxymethyl)aminomethane/N-2-hydroxyethylpiperazine-N′-ethanesulfonic acid [Tris/Hepes], pH 7.2) or sodium-free buffer (137 mM N-methyl-glucamine, 5.4 mM KCl, 2.8 mM CaCl2, 1.2 mM MgCl2, 10 mM Tris/Hepes, pH 7.2). Test compound in 50 μl each of sodium or sodium-free buffer containing 40 μCi/ml methyl-α-D-[U-^14C]glucopyranoside (Amersham Biosciences/GE Healthcare) was added per well of a 96-well plate and incubated at 37° C. with shaking for either 2 h (SGLT1 assay) or 1.5 h (SGLT2 assay). Cells were washed twice with 150 μl of wash buffer (137 mM N-methylglucamine, 10 mM Tris/Hepes, pH 7.2) and methyl-α-D-[U-^14C]glucopyranoside uptake was quantitated using a TopCount scintillation counter (PerkinElmer, Inc.). Sodium-dependent glucopyranoside uptake was measured by subtracting the values obtained with sodium-free buffer from those obtained using sodium buffer (average of triplicate determinations).

In assay [2] the target is T2, human SGLT1 (Homo sapiens, UniProt P13866).
T2 construct: Full-length human SGLT1 cDNA on pDream2.1 expression vector; host or cells: COS-7 cells
T2 sequence (P13866 1-664): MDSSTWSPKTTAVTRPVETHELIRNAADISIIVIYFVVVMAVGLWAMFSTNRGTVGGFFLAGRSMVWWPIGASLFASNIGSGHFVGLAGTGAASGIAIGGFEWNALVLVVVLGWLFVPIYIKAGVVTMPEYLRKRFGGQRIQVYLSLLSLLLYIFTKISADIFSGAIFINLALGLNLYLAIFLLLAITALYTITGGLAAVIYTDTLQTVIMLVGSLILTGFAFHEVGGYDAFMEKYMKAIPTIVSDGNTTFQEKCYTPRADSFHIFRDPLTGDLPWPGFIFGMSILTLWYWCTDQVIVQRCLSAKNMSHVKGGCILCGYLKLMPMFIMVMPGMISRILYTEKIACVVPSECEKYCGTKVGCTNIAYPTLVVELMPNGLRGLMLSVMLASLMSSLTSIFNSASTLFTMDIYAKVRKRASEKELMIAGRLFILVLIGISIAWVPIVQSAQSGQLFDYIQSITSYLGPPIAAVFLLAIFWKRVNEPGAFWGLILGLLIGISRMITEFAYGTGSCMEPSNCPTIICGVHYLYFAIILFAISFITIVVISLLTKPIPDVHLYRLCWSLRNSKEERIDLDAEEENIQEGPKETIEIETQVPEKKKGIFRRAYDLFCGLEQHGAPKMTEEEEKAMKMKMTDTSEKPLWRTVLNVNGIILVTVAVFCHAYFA
As to the kind of experiment: Methyl-α-D-[U-14C]glucopyranoside uptake assay, SGLT1. In kind it is cell-based. The settings on record: COS-7 cells transfected with human SGLT1; sodium-dependent uptake, 2 h incubation. On the procedure:
Full-length human SGLT1 cDNA on pDream2.1 expression vector was obtained from GenScript Corporation and propagated in Escherichia coli strain DH5α using Luria-Bertani (LB) medium containing ampicillin. Plasmid DNA was isolated using the QIAGEN Plasmid Midi Kit (QIAGEN Inc.). […] Transfected cells were stored in DMEM containing 10% dimethyl sulfoxide (DMSO) at −80° C.
as §1

Like-named read-outs stand apart in the source and are kept apart here. Some results are limits rather than exact numbers.

On to `CCc1ccc(Cc2cc3c(cc2Cl)CO[C@]32O[C@H](COC)[C@@H](O)[C@H](O)[C@H]2O)cc1` [Compound AG, (1S,3′R,4′S,5′S,6′R)-5-chloro-6-(4-ethylbenzyl)-6′-(methoxymethyl)-3′,4′,5′,6′-tetrahydro-3H-spiro[isobenzofuran-1,2′-pyran]-3′,4′,5′-triol], for which the IC50 (commonly the concentration that gives 50% inhibition) in assay [1] (read-out: IC50 SGLT2) is less than 1000 nM; in assay [2], 1000 to 10000 nM.
On the same counts, the results for `CCc1ccc(Cc2cc3c(cc2Cl)CO[C@]32O[C@H](COC(C)=O)[C@@H](O)[C@H](O)[C@H]2O)cc1` [Compound AH, ((1S,3′R,4′S,5′S,6′R)-5-chloro-6-(4-ethylbenzyl)-3′,4′,5′-trihydroxy-3′,4′,5′,6′-tetrahydro-3H-spiro[isobenzofuran-1,2′-pyran]-6′-yl)methyl acetate] are less than 1000 nM and 1000 to 10000 nM.
Taken in the same sequence, the figures for `CCc1ccc(Cc2cc3c(cc2Cl)CO[C@]32O[C@H](COCC(F)(F)F)[C@@H](O)[C@H](O)[C@H]2O)cc1` [Compound AI, (1S,3′R,4′S,5′S,6′R)-5-chloro-6-(4-ethylbenzyl)-6′-((2,2,2-trifluoroethoxy)methyl)-3′,4′,5′,6′-tetrahydro-3H-spiro[isobenzofuran-1,2′-pyran]-3′,4′,5′-triol] were less than 1000 nM and greater than 10000 nM.
For `CCc1ccc(Cc2cc3c(cc2Cl)CO[C@]32O[C@H](CNC(C)=O)[C@@H](O)[C@H](O)[C@H]2O)cc1` [Compound AM, N-(((1S,3′R,4′S,5′S,6′R)-5-chloro-6-(4-ethylbenzyl)-3′,4′,5′-trihydroxy-3′,4′,5′,6′-tetrahydro-3H-spiro[isobenzofuran-1,2′-pyran]-6′-yl)methyl)acetamide], the figures for the IC50 in assay [1] (read-out: IC50 SGLT2) and in assay [2] were less than 1000 nM and 1000 to 10000 nM, respectively.
Taken in the same sequence, the figures for `CCc1ccc(C(=O)c2cc3c(cc2Cl)CO[C@]32O[C@H](CO)[C@@H](O)[C@H](O)[C@H]2O)cc1` [Compound AQ, ((1S,3′R,4′S,5′S,6′R)-5-chloro-3′,4′,5′-trihydroxy-6′-(hydroxymethyl)-3′,4′,5′,6′-tetrahydro-3H-spiro[isobenzofuran-1,2′-pyran]-6-yl)(4-ethylphenyl)methanone] were less than 1000 nM and greater than 10000 nM.
`CCc1ccc(Cc2cc3c(cc2Cl)CC[C@]32O[C@H](CO)[C@@H](O)[C@H](O)[C@H]2O)cc1` [Compound AV, (1S,3′R,4′S,5′S,6′R)-5-chloro-6-(4-ethylbenzyl)-6′-(hydroxymethyl)-2,3,3′,4′,5′,6′-hexahydrospiro[indene-1,2′-pyran]-3′,4′,5′-triol]: the results for the IC50 in assay [1] (read-out: IC50 SGLT2) and in assay [2] were less than 1000 nM and 1000 to 10000 nM, respectively.
As for `CCc1ccc(Cc2cc3c(cc2Cl)C(CCO)C[C@]32O[C@H](CO)[C@@H](O)[C@H](O)[C@H]2O)cc1` (stereo partly drawn) [Compound BA, (1S,3′R,4′S,5′S,6′R)-5-chloro-6-(4-ethylbenzyl)-3-(2-hydroxyethyl)-6′-(hydroxymethyl)-2,3,3′,4′,5′,6′-hexahydrospiro[indene-1,2′-pyran]-3′,4′,5′-triol], the concentration for half-maximal inhibition (IC50) in assay [1] (read-out: IC50 SGLT2) was less than 1000 nM; in assay [2] it was greater than 10000 nM.
As to `CCc1ccc(Cc2cc3c(cc2Cl)C(O)C[C@]32O[C@H](CO)[C@@H](O)[C@H](O)[C@H]2O)cc1` (stereo partly drawn) [Compound BB, (1S,3′R,4′S,5′S,6′R)-5-chloro-6-(4-ethylbenzyl)-6′-(hydroxymethyl)-2,3,3′,4′,5′,6′-hexahydrospiro[indene-1,2′-pyran]-3,3′,4′,5′-tetraol], the IC50 in assay [1] (read-out: IC50 SGLT2) is less than 1000 nM; in assay [2], greater than 10000 nM.
In the case of `CCc1ccc(Cc2cc3c(cc2Cl)C(OC)C[C@]32O[C@H](CO)[C@@H](O)[C@H](O)[C@H]2O)cc1` (stereo partly drawn) [Compound BD, (1S,3′R,4′S,5′S,6′R)-5-chloro-6-(4-ethylbenzyl)-6′-(hydroxymethyl)-3-methoxy-2,3,3′,4′,5′,6′-hexahydrospiro[indene-1,2′-pyran]-3′,4′,5′-triol], the IC50 is less than 1000 nM in assay [1] (read-out: IC50 SGLT2) and greater than 10000 nM in assay [2].
As to `CCc1ccc(Cc2cc3c(cc2Cl)C(F)C[C@]32O[C@H](CO)[C@@H](O)[C@H](O)[C@H]2O)cc1` (stereo partly drawn) [Compound BE, (1S,3′R,4′S,5′S,6′R)-5-chloro-6-(4-ethylbenzyl)-3-fluoro-6′-(hydroxymethyl)-2,3,3′,4′,5′,6′-hexahydrospiro[indene-1,2′-pyran]-3′,4′,5′-triol], the IC50 in assay [1] (read-out: IC50 SGLT2) is less than 1000 nM; in assay [2] it was greater than 10000 nM.
For the compound `OC[C@H]1O[C@]2(CCc3cc(Cl)c(Cc4ccc(O[C@H]5CCOC5)cc4)cc32)[C@H](O)[C@@H](O)[C@@H]1O` [Compound BG, (1S,3′R,4′S,5′S,6′R)-5-chloro-6′-(hydroxymethyl)-6-(4-((S)-tetrahydrofuran-3-yloxy)benzyl)-2,3,3′,4′,5′,6′-hexahydrospiro[indene-1,2′-pyran]-3′,4′,5′-triol], the 50% inhibitory concentration (IC50) is less than 1000 nM in assay [1] (read-out: IC50 SGLT2) and greater than 10000 nM in assay [2].
For `CCOc1ccc(Cc2ccc3c(c2)[C@]2(OC3)O[C@H](CO)[C@@H](O)[C@H](O)[C@H]2O)cc1` [Compound G, (1S,3′R,4′S,5′S,6′R)-6-(4-ethoxybenzyl)-6′-(hydroxymethyl)-3′,4′,5′,6′-tetrahydro-3H-spiro[isobenzofuran-1,2′-pyran]-3′,4′,5′-triol], the half-maximal inhibitory concentration (IC50) in assay [1] (read-out: IC50 SGLT2) was less than 1000 nM; in assay [1] (read-out: SGLT2 IC50), 71 nM; in assay [2], greater than 10000 nM.
As to `CCOc1ccc(Cc2cc3c(cc2Cl)CO[C@]32O[C@H](CO)[C@@H](O)[C@H](O)[C@H]2O)cc1` [Compound H, (1S,3′R,4′S,5′S,6′R)-5-chloro-6-(4-ethoxybenzyl)-6′-(hydroxymethyl)-3′,4′,5′,6′-tetrahydro-3H-spiro[isobenzofuran-1,2′-pyran]-3′,4′,5′-triol], the figures for the IC50 in assay [1] (read-out: IC50 SGLT2), in assay [1] (read-out: SGLT2 IC50) and in assay [2] were less than 1000 nM, 5.1 nM and 1000 to 10000 nM, respectively.
Regarding `CCc1ccc(Cc2cc3c(cc2Cl)CO[C@]32O[C@H](CO)[C@@H](O)[C@H](O)[C@H]2O)cc1` [Compound K, (1S,3′R,4′S,5′S,6′R)-5-chloro-6-(4-ethylbenzyl)-6′-(hydroxymethyl)-3′,4′,5′,6′-tetrahydro-3H-spiro[isobenzofuran-1,2′-pyran]-3′,4′,5′-triol], the IC50 in assay [1] (read-out: IC50 SGLT2) and in assay [2] was less than 1000 nM in each case.
